Source: US20230058189A1, “QUINOLIN-4-ONE AND 4(1H)-CINNOLINONE COMPOUNDS AND METHODS OF USING SAME” (Frequency Therapeutics, Inc., priority 2019, published 2023)

Assays:
Type in all cases: biochemical
GSK3α = GSK3α (Homo sapiens, UniProt P49840); experiment: GSK3α in vitro enzymatic assay (Kinase-Glo Max luminescence); conditions: recombinant human GSK3, 10 μM ATP; approximate values; read-out: Potency GSK3alpha
Procedure: (§1) Enzymatic activities of compounds of the present disclosure can be tested using recombinant human GSK3 in an in vitro enzymatic assay to determine the ability of the compounds of the present disclosure to inhibit GSK3α and GSK3β.
(§2) The assay was performed using Kinase-Glo® Max luminescence kinase assay kit (Promega). The assay measures kinase activity by quantitating the amount of ATP remaining in solution following a kinase reaction. The luminescent signal from the assay is correlated with the amount of ATP present and is inversely correlated with the amount of kinase activity.
(§3) To perform the assay, compounds were diluted in 10% DMSO and 5 μl of the dilution was added to a 50 μl reaction so that the final concentration of DMSO was 1% in all of reactions. The enzymatic reactions were conducted at 30° C. for 40 minutes. The 50 μl reaction mixture contained 40 mM Tris, pH 7.4, 10 mM MgCl2, 0.1 mg/ml BSA, 2 mM DTT, 0.1 mg/ml GSK tide substrate, 10 uM ATP and GSK3. After the enzymatic reaction, 50 μl of Kinase-Glo Max Luminescence kinase assay solution (Promega) was added to each reaction and plates were incubated for 15 minutes at room temperature. Luminescence signal was measured using a BioTek Synergy 2 microplate reader.
(§4) Kinase activity assays were performed in duplicate at each concentration. The luminescence data were analyzed using the computer software, GraphPad Prism. The difference between luminescence intensities in the absence of Kinase (Lut) and in the presence of Kinase (Luc) was defined as 100% activity (Lut-Luc). Using luminescence signal (Lu) in the presence of the compound, percent activity was calculated as: % activity={(Lut-Lu)/(Lut-Luc)}×100%, where Lu=the luminescence intensity in the presence of the compound (all percent activities below zero were shown zero in the table).
(§5) The values of percent activity versus a series of compound concentrations were then plotted using non-linear regression analysis of Sigmoidal dose-response curve generated with the equation Y=B+(T−B)/1+10((LogEC50−X)×Hill Slope), where Y=percent activity, B=minimum percent activity, T=maximum percent activity, X=logarithm of compound and Hill Slope=slope factor or Hill coefficient. The ICs, value was determined by the concentration causing a half-maximal percent activity.

GSK3β = GSK3β (Homo sapiens, UniProt P49841); experiment: GSK3β in vitro enzymatic assay (Kinase-Glo Max luminescence); conditions: recombinant human GSK3, 10 μM ATP; approximate values; read-out: Potency GSK3beta
Procedure: as §1, §2, §3, §4, §5

LSD-1 = LSD-1 (Homo sapiens, UniProt O60341); experiment: LSD-1 A-screen (AlphaScreen) demethylase enzymatic assay; conditions: 50 μM compound, approximate values; for inhibition at 50 µM: read-out: Potency LSD-1 % Inhibition at 50 μM
Procedure: (§6) Enzymatic activities of compounds of the present disclosure can be tested with recombinant human LSD using an in vitro enzymatic assay to determine the ability of the compounds of the present disclosure to inhibit LSD-1 and LSD2. Examples of the assay are provided below.
(§7) All of the enzymatic reactions were conducted in duplicate at room temperature for 60 minutes in a 10 μL mixture containing assay buffer, histone H3 peptide substrate, demthylase enzyme, and the test compound. These 10 μL reactions were carried out in wells of a 384-well Optiplate (PerkinElmer). The dilution of the compounds was first performed in 100% DMSO with the highest concentration at 5 mM Each intermediate compound dilution (in 100% DMSO) was then directly diluted 30× fold into assay buffer for 3.3× concentration (DMSO). […] From this intermediate step, 3 μL of compound was added to 4 μL of demethylase enzyme dilution was incubated for 30 minutes at room temperature. After this incubation, 3 μL of peptide substrate was added. The final DMSO concentration was 1%. After enzymatic reactions, 5 μL of anti-Mouse or anti-Rabbit Acceptor beads (PerkinElmer, diluted 1:500 with 1× detection buffer) and […] (BPS, diluted 1:800 with 1× detection buffer) were added to the reaction mix. After brief shaking, the plate was incubated for 30 minutes. Finally, 10 μL of AlphaScreen™ Streptavidin-conjugated donor beads (Perkin, diluted 1:125 with 1× detection buffer) were added. After 30 minutes, the samples were measured in an AlphaScreen microplate reader (EnSpire Alpha 2390 Multilabel Reader, Perkin Elmer).
(§8) Enzyme activity assays were performed in duplicates at each concentration. The A-screen intensity data were analyzed and compared. In the absence of the compound, the intensity in each data set was defined as 100% (Ce) activity. In the absence of enzyme, the intensity in each data set was defined as 0% (C0) activity. The percent activity in the presence of each compound was calculated according to the following equation: % activity=(C−C0)/(Ce−C0), where C=the intensity in the presence of the compound.
as §5, with “value” for “values”, “was” for “were”, “IC50” for “ICs,”

LSD2 = molecular target: T1, LSD2 (Homo sapiens, UniProt Q8NB78); experiment: LSD2 A-screen (AlphaScreen) demethylase enzymatic assay; conditions: 50 μM compound; approximate values; read-out: Potency LSD-2 % Inhibition at 50 μM
T1 sequence (Q8NB78 1-822): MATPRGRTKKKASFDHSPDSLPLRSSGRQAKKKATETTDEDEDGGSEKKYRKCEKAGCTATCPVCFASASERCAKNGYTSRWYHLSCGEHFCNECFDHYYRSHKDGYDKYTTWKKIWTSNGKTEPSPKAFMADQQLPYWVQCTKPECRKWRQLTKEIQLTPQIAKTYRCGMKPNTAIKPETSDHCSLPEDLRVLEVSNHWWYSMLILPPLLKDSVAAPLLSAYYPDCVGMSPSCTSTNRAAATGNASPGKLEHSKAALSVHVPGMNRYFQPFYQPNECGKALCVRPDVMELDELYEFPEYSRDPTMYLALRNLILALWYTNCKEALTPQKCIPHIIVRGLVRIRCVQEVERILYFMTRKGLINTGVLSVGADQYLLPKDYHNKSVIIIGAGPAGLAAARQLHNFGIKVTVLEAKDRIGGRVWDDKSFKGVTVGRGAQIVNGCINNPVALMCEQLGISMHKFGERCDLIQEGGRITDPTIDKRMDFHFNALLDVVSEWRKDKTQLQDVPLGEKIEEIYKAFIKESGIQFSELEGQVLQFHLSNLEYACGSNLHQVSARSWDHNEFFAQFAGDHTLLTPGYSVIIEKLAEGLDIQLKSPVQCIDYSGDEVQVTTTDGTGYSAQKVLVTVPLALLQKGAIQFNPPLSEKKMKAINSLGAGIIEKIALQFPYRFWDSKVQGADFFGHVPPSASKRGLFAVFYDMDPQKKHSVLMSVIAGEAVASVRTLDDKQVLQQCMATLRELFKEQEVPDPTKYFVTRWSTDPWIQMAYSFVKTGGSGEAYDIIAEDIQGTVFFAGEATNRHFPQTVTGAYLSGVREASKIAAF
Procedure: as §6, §7, §8
as §5, with “value” for “values”, “was” for “were”, “IC50” for “ICs,”

Sequence of GSK3β (P49841 whole entry): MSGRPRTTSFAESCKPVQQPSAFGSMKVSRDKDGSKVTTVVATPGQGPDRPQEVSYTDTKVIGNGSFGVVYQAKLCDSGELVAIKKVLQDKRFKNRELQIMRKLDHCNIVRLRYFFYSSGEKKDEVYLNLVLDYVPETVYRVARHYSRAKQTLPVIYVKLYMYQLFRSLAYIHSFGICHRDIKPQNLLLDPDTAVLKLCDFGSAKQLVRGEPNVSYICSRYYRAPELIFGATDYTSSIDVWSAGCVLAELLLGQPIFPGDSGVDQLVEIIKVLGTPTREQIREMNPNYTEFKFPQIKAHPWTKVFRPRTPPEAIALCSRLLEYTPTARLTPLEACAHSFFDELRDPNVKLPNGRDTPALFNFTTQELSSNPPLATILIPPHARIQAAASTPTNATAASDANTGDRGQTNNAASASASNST
Sequence of GSK3α (P49840 whole entry): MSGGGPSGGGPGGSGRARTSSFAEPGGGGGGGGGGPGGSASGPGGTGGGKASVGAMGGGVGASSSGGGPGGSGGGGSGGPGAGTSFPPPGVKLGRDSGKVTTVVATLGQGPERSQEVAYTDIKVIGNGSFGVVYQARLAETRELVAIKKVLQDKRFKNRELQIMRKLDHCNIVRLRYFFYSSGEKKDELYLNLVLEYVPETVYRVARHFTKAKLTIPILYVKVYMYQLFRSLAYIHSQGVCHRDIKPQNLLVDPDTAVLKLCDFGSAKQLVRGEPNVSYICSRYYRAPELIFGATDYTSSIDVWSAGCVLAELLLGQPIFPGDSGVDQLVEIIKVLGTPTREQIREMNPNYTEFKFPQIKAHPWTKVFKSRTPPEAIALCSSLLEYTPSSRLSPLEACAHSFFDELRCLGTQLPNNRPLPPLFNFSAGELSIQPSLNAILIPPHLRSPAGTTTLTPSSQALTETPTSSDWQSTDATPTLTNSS

Structure (SMILES) | IC50 (GSK3α) [nM] | IC50 (GSK3β) [nM] | inhibition at 50 µM (LSD-1) [%] | inhibition at 50 µM (LSD2) [%] | Potency LSD-1 % Inhibition at 50 μM (LSD-1; 50 µM) [% @ 50 μM]
CC(C)n1cc(C(=O)O)c(=O)c2c(N)c(F)c(N[C@]3(C)C[C@@H](N[C@@H]4C[C@H]4c4ccccc4)C3)cc21 (relative stereo) [Compound I-93] | 3950 | 6540 | 3 | 2 | 
CCn1cc(C(=O)O)c(=O)c2cc(F)c(NC3CCCCC3)cc21 [Compound I-1] | 3600 | 6700 | 10 | 6 | 
CCC(CC)n1cc(C(=O)O)c(=O)c2c(C)c(F)c(NC3CCCCC3)cc21 [Compound I-3] | 250 | 366 | 13 | 0 | 
CCn1cc(C(=O)O)c(=O)c2c(N)c(F)c(NC3CCOCC3)cc21 [Compound I-8] | 713 | 452 | 10 | 1 | 
CCn1cc(C(=O)O)c(=O)c2c(N)c(F)c(NC3CCc4ccccc43)cc21 (stereo not shown) [Compound I-10] | 3800 | 1900 | 22 | 6 | 
CCn1cc(C(=O)O)c(=O)c2c(N)c(F)c(NC3Cc4ccccc4C3)cc21 [Compound I-11] | 846 | 990 | 27 | 13 | 
CCn1cc(C(=O)O)c(=O)c2c(N)c(F)c(NC3CC3)cc21 [Compound I-15] | 352 | 223 | 2 | 2 | 
CCn1cc(C(=O)O)c(=O)c2c(N)c(F)c(NCc3ccccc3)cc21 [Compound I-17] | 659 | 2030 | 2 | 19 | 
CCn1cc(C(=O)O)c(=O)c2c(N)c(F)c(N[C@@H]3C[C@H]3c3ccccc3)cc21 [Compound I-21] | 392 | 334 | 19 | 0 | 
CCn1cc(C(=O)O)c(=O)c2c(N)cc(NCCCc3ccccc3)cc21 [Compound I-57] | 762 | 1760 | 83 | 42 | 
CCn1cc(C(=O)O)c(=O)c2c(N)cc(NCCc3ccccc3)c(F)c21 [Compound I-65] | > 10000 | > 10000 | 88 | 38 | 
CCn1cc(-c2nnn[nH]2)c(=O)c2c(N)c(F)c(NCCc3ccccc3)cc21 [Compound I-68] | 581 | 711 | 0 | 96 | 

Compounds with a lower IC50 (GSK3α), results first:

IC50 (GSK3α) [nM] | IC50 (GSK3β) [nM] | inhibition at 50 µM (LSD-1) [%] | inhibition at 50 µM (LSD2) [%] | Potency LSD-1 % Inhibition at 50 μM (LSD-1; 50 µM) [% @ 50 μM] | Structure (SMILES)
102 | 338 |  | 10 | <10 | CCn1cc(C(=O)O)c(=O)c2c(N)c(F)c(N[C@@H]3C[C@H]3c3ccccc3)cc21 (single isomer, unassigned) [Compound I-20]
38 | 18 | 10 | 5 |  | CCn1cc(C(=O)O)c(=O)c2c(N)c(F)c(NC3CCCCC3)cc21 [Compound I-7]
69 | 53 | 6 | 3 |  | CCn1cc(C(=O)O)c(=O)c2c(N)c(F)c(NC3CCCC3)cc21 [Compound I-9]
82 | 55 | 36 | 0 |  | CCn1cc(C(=O)O)c(=O)c2c(N)c(F)c(NC3CCC3)cc21 [Compound I-12]
107 | 68 | 32 | 5 |  | CCn1cc(C(=O)O)c(=O)c2c(N)c(F)c(Nc3ccccc3)cc21 [Compound I-16]
121 | 231 | 11 | 1 |  | CCn1cc(C(=O)O)c(=O)c2c(N)c(F)c(NCCc3ccccc3)cc21 [Compound I-18]
19 | 29 | 27 | 17 |  | CCn1cc(C(=O)O)c(=O)c2c(N)c(F)c(NCCCc3ccccc3)cc21 [Compound I-19]
137 | 115 | 11 | 2 |  | CCn1cc(C(=O)O)c(=O)c2c(N)c(F)c(N[C@H]3C[C@@H]3c3ccccc3)cc21 [Compound I-22]
32 | 31 | 15 | 4 |  | CCn1cc(C(=O)O)c(=O)c2c(N)c(F)c(N[C@H]3C[C@H](c4ccccc4)C3)cc21 [Compound I-60]
72 | 268 | 26 | 15 |  | CCn1cc(C(=O)O)c(=O)c2c(N)c(F)c(N[C@H]3C[C@@H](c4ccccc4)C3)cc21 [Compound I-61]
2.6 | 2.5 | 6 | 4 |  | CCn1cc(C(N)=O)c(=O)c2c(N)c(F)c(NCCc3ccccc3)cc21 [Compound I-66]
2 | 1.9 | 8 | 4 |  | CCn1cc(C#N)c(=O)c2c(N)c(F)c(NCCc3ccccc3)cc21 [Compound I-67]
61 | 52 | 17 | 3 |  | CCn1cc(C(=O)O)c(=O)c2c(N)c(F)c(NC3CN(c4ccccc4)C3)cc21 [Compound I-69]
